Measured values published in the RepoRT retention time repository.

Assay: HILIC, Waters ACQUITY UPLC BEH Amide, 100 × 2.1 mm, 1.7 µm; A: water + 0.125% formic acid + 10 mM ammonium formate; B: 5% water + 95% acetonitrile + 0.125% formic acid + 10 mM ammonium formate; gradient (min/%B) 0/100 2/100 7.7/70 9.5/40 10.25/30 12.75/100 17/100
Settings: stereoisomer not certain
`O=c1[nH]c(=S)ccn1C1OC(CO)C(O)C1O` (stereo unspecified) [4-Thiouridine] showed an LC retention time of 2.27 min. In the case of `O=C1CN=C(c2ccccn2)c2cc(Br)ccc2N1` [Bromazepam], the LC retention time is reported as 1.3 min. `CC(NC(CCCN=C(N)N)C(=O)O)C(=O)O` (stereo unspecified) [Octopine] showed an LC retention time of 10.3 min. For `CN1C(=O)C(O)CC1c1cccnc1` (stereo not drawn) [trans-3'-Hydroxycotinine], the LC retention time was 2.02 min. With `Cn1cc(CC(N)C(=O)O)c2ccccc21` (stereo unspecified) [1-Methyltryptophan] the LC retention time was 6.38 min. `Nc1c(O)cccc1C(=O)O` [3-Hydroxyanthranilic acid] gave an LC retention time of 1.48 min. For `NC(=O)c1ccc[n+](C2OC(CO)C(O)C2O)c1` (stereo unspecified) [Nicotinamide riboside cation], the LC retention time was 7.51 min. With `NC(N)=NCCCC(NC(=O)C(N)CCC(=O)O)C(=O)O` (stereo unspecified) [Glu-Arg] the LC retention time was 9.9 min. Work on `O=C(C=Cc1ccc(O)c(O)c1)OC1CC(O)(C(=O)O)CC(O)C1O` (stereo unspecified) [Chlorogenic acid] yielded an LC retention time of 6.68 min. Work on `CSCCCN` [3-Methylthiopropylamine] yielded an LC retention time of 5.16 min. `NC(=O)c1[nH]cnc1N` [5-Aminoimidazole-4-carboxamide] gave an LC retention time of 4.18 min. Work on `CC(=O)SCC(Cc1ccccc1)C(=O)NCC(=O)OCc1ccccc1` (stereo unspecified) [Racecadotril] yielded an LC retention time of 0.95 min. With `C=C(OP(=O)(O)O)C(=O)O` [Phosphoenolpyruvic acid] the LC retention time was 9.05 min. Work on `C[N+](C)(C)CCO` [Choline [M]+] yielded an LC retention time of 5.18 min. `CC(C)C(N)C(=O)OCCOCn1cnc2c(=O)[nH]c(N)nc21` (stereo unspecified) [Valaciclovir] gave an LC retention time of 6.83 min. With `NC(=O)Cc1c[nH]c2ccccc12` [Indole-3-acetamide] the LC retention time was 1.36 min. Work on `CCC1(CC)C(=O)NCC(C)C1=O` (stereo unspecified) [Methyprylon] yielded an LC retention time of 1.18 min. Work on `OCc1ccccc1OC1OC(CO)C(O)C(O)C1O` (stereo unspecified) [Salicin] yielded an LC retention time of 4.48 min. Molecule `Nc1ccc(O)c(C(=O)O)c1` has an LC retention time of 3.89 min. `Cc1[nH]cnc1CN1CCc2c(c3ccccc3n2C)C1=O` [Alosetron] gave an LC retention time of 4.19 min. Work on `CCN(C(C)=O)c1cccc(-c2ccnc3c(C#N)cnn23)c1` [Zaleplon] yielded an LC retention time of 1.02 min. Work on `Nc1nc2c(ncn2C2CC(OP(=O)(O)O)C(CO)O2)c(=O)[nH]1` (stereo unspecified) [2'-Deoxyguanosine 3'-monophosphate] yielded an LC retention time of 9.43 min. Work on `CS(=O)CCCCC(=NO)SC1OC(CO)C(O)C(O)C1O` (stereo unspecified) [Desulfo Glucoraphanin] yielded an LC retention time of 6.61 min. Molecule `CNC(C(=O)O)C(C)O` (stereo unspecified) [N-Methylthreonine] has an LC retention time of 7.68 min. For `CC1CN(CCCn2c3ccccc3c3ccccc32)CC(C)N1` (stereo unspecified) [Rimcazole], the LC retention time was 2.87 min. Work on `CC(C)CCCC(C)C1CCC2C3CC=C4CC(OC(=O)NCCN(C)C)CCC4(C)C3CCC12C` (stereo not drawn) [3-beta-Cholest-5-en-3-yl [2-(dimethylamino)ethyl]carbamate] yielded an LC retention time of 2.34 min. `CC(C)CC(N)C(=O)NC(CCCN=C(N)N)C(=O)O` (stereo unspecified) [Leu-Arg] showed an LC retention time of 8.86 min. `OCC1OC(O)C(O)C(O)C1O` (stereo unspecified) [Glucose] showed an LC retention time of 1.84 min. For `COc1ccccc1N1CCN(CC(O)COc2cccc3ccccc23)CC1` (stereo unspecified) [Naftopidil], the LC retention time was 1.99 min. `N#CC(O)c1ccc(O)cc1` (stereo unspecified) [4-Hydroxymandelonitrile] gave an LC retention time of 2.63 min. `CSCCC(NC(C)=O)C(=O)O` (stereo unspecified) [N-Acetylmethionine] showed an LC retention time of 3.23 min. With `CCC(=O)C(CC(C)N(C)C)(c1ccccc1)c1ccccc1` (stereo unspecified) [Methadone] the LC retention time was 2 min. Molecule `O=P(O)(O)OCC(O)C(O)C(O)C(O)CO` (stereo unspecified) [Sorbitol-6-phosphate] has an LC retention time of 9.75 min. With `NCCc1ccc(O)c(O)c1` [Dopamine] the LC retention time was 6.4 min. `Cc1nc2ccc(CN(C)c3ccc(C(=O)NC(CCC(=O)O)C(=O)O)s3)cc2c(=O)[nH]1` (stereo unspecified) [Raltitrexed] gave an LC retention time of 7.35 min. Molecule `CN1CC(=O)N2C(Cc3c([nH]c4ccccc34)C2c2ccc3c(c2)OCO3)C1=O` (stereo unspecified) [Taldalafil] has an LC retention time of 1.19 min. For `CN1C(=O)C(O)N=C(c2ccccc2)c2cc(Cl)ccc21` (stereo unspecified) [Temazepam], the LC retention time was 1.15 min. Work on `CC(c1ncncc1F)C(O)(Cn1cncn1)c1ccc(F)cc1F` (stereo unspecified) [Voriconazole] yielded an LC retention time of 1.02 min. Molecule `O=c1ccn(C2OC(CO)C(O)C2O)c(=S)[nH]1` (stereo unspecified) [2-Thiouridine] has an LC retention time of 2.48 min. Work on `CCCCCCc1ccc(O)cc1O` [4-Hexylresorcinol] yielded an LC retention time of 1.63 min. `CC(C)(O)C1C2OC(=O)C1C1(O)CC3OC34C(=O)OC2C14C` (stereo unspecified) [Picrotin] gave an LC retention time of 1.21 min. Molecule `C=C1CCOC1=O` [alpha-Methylene-gamma-butyrolactone] has an LC retention time of 1.05 min. Work on `O=C1CCC(=O)CC1` [1,4-Cyclohexanedione] yielded an LC retention time of 1.15 min. With `O=C1OC(CO)C(O)C(O)C1O` (stereo unspecified) [Gluconolactone] the LC retention time was 8.15 min. `CCN1CCN(c2cc3c(cc2F)c(=O)c(C(=O)O)cn3C2CC2)CC1` [Enrofloxacin] showed an LC retention time of 3.31 min. With `CN(CC=CC#CC(C)(C)C)Cc1cccc2ccccc12` [Terbinafine] the LC retention time was 1.33 min.
